Assay results from patent US12458651B2, “Compounds and their uses for alleviating menopause-associated symptoms” (ESTETRA SRL, priority 2018, dated 2025).

Columns and labels:
Type in all cases: in vivo
post-menopausal women [1] = assay: GSM symptom: dysuria
Description: (§1) Change from baseline to week 12 in the following GSM symptoms (VVA subject self-assessment) were recorded: • a) Vaginal dryness (sensation of dryness or burning in the vagina; none=0 mild=1, moderate=2 or severe=3):
• c) Dysuria (sensation of pain or difficulty in urinating; none=0, mild=1, moderate=2 or severe=3): […]

post-menopausal women [2] = assay: GSM symptom: vaginal and/or vulvar irritation/itching
Description: as §1
• b) Vaginal and/or vulvar irritation/itching (sensation of abnormal irritation or sensitive condition in the vagina; none=0, mild=1, moderate=2 or severe=3): […]

post-menopausal women [3] = assay: Dose-finding study: hot flush weekly weighted score
Description: Further, the terms “Hot Flush Weekly Weighted Score”, as used herein, corresponds to a score taking into account frequency and severity which is calculated by using the severity score (as calculated above): [(1×No. of mild VMS)+(2×No. of moderate VMS)+(3×No. of severe VMS)] during a 7 day period.
Such a weighted score was for example used by Notelovitz et al. (“Initial 17β-Estradiol Dose for Treating Vasomotor Symptoms”; Obstetrics and Gynaecology, Vol. 95(5), May 2000, p. 726-731). This score was used to generate the data included in Example 1 further below, under section A. c) “Hot Flush Weekly Weighted Score”.

C[C@]12CC[C@@H]3c4ccc(O)cc4CC[C@H]3[C@@H]1[C@@H](O)[C@@H](O)[C@@H]2O [Estetrol, 1,3,5 (10)-estratrien-3,15alpha,16alpha,17beta-tetrol]
Dysuria score (none=0 to severe=3), mean ± SD (post-menopausal women [1]; E4 2.5 mg, Baseline): 0.2 ± 0.56
Dysuria score (none=0 to severe=3), mean ± SD (post-menopausal women [1]; E4 2.5 mg, Week 12): 0 ± 0.19
Dysuria score (none=0 to severe=3), mean ± SD (post-menopausal women [1]; E4 5 mg, Baseline): 0.2 ± 0.56
Dysuria score (none=0 to severe=3), mean ± SD (post-menopausal women [1]; E4 5 mg, Week 12): 0 ± 0.20
Dysuria score (none=0 to severe=3), mean ± SD (post-menopausal women [1]; E4 10 mg, Baseline): 0.2 ± 0.58
Dysuria score (none=0 to severe=3), mean ± SD (post-menopausal women [1]; E4 10 mg, Week 12): 0.1 ± 0.23
Dysuria score (none=0 to severe=3), mean ± SD (post-menopausal women [1]; E4 15 mg, Baseline): 0.3 ± 0.58
Dysuria score (none=0 to severe=3), mean ± SD (post-menopausal women [1]; E4 15 mg, Week 12): 0.3 ± 0.61
Vaginal and/or vulvar irritation/itching score (none=0 to severe=3), mean ± SD (post-menopausal women [2]; E4 2.5 mg, Baseline): 0.7 ± 0.96
Vaginal and/or vulvar irritation/itching score (none=0 to severe=3), mean ± SD (post-menopausal women [2]; E4 2.5 mg, Week 12): 0.3 ± 0.60
Vaginal and/or vulvar irritation/itching score (none=0 to severe=3), mean ± SD (post-menopausal women [2]; E4 5 mg, Baseline): 0.6 ± 0.90
Vaginal and/or vulvar irritation/itching score (none=0 to severe=3), mean ± SD (post-menopausal women [2]; E4 5 mg, Week 12): 0.4 ± 0.65
Vaginal and/or vulvar irritation/itching score (none=0 to severe=3), mean ± SD (post-menopausal women [2]; E4 10 mg, Baseline): 0.7 ± 0.87
Vaginal and/or vulvar irritation/itching score (none=0 to severe=3), mean ± SD (post-menopausal women [2]; E4 10 mg, Week 12): 0.3 ± 0.64
Vaginal and/or vulvar irritation/itching score (none=0 to severe=3), mean ± SD (post-menopausal women [2]; E4 15 mg, Baseline): 0.5 ± 0.85
Vaginal and/or vulvar irritation/itching score (none=0 to severe=3), mean ± SD (post-menopausal women [2]; E4 15 mg, Week 12): 0.4 ± 0.70
Relative change (% from baseline) in hot flush weekly weighted score, mean (post-menopausal women [3]; 10 mg per day, week 0): 0%
Relative change (% from baseline) in hot flush weekly weighted score, mean (section B analysis) (post-menopausal women [3]; 10 mg per day, week 0): 0%
Relative change (% from baseline) in hot flush weekly weighted score, mean (section B analysis) (post-menopausal women [3]; 10 mg per day, week 1): −20%
Relative change (% from baseline) in hot flush weekly weighted score, mean (section B analysis) (post-menopausal women [3]; 10 mg per day, week 2): −34%
Relative change (% from baseline) in hot flush weekly weighted score, mean (section B analysis) (post-menopausal women [3]; 10 mg per day, week 3): −46%
Relative change (% from baseline) in hot flush weekly weighted score, mean (section B analysis) (post-menopausal women [3]; 10 mg per day, week 4): −53%
Relative change (% from baseline) in hot flush weekly weighted score, mean (section B analysis) (post-menopausal women [3]; 10 mg per day, week 5): −57%
Relative change (% from baseline) in hot flush weekly weighted score, mean (section B analysis) (post-menopausal women [3]; 10 mg per day, week 6): −62%
Relative change (% from baseline) in hot flush weekly weighted score, mean (section B analysis) (post-menopausal women [3]; 10 mg per day, week 7): −64%
Relative change (% from baseline) in hot flush weekly weighted score, mean (section B analysis) (post-menopausal women [3]; 10 mg per day, week 8): −66%
Relative change (% from baseline) in hot flush weekly weighted score, mean (section B analysis) (post-menopausal women [3]; 10 mg per day, week 9): −66%
Relative change (% from baseline) in hot flush weekly weighted score, mean (section B analysis) (post-menopausal women [3]; 10 mg per day, week 10): −68%
Relative change (% from baseline) in hot flush weekly weighted score, mean (section B analysis) (post-menopausal women [3]; 10 mg per day, week 11): −68%
Relative change (% from baseline) in hot flush weekly weighted score, mean (section B analysis) (post-menopausal women [3]; 10 mg per day, week 12): −69%
Relative change (% from baseline) in hot flush weekly weighted score, mean (post-menopausal women [3]; 15 mg per day, week 0): 0%
Relative change (% from baseline) in hot flush weekly weighted score, mean (section B analysis) (post-menopausal women [3]; 15 mg per day, week 0): 0%
Relative change (% from baseline) in hot flush weekly weighted score, mean (section B analysis) (post-menopausal women [3]; 15 mg per day, week 1): −22%
Relative change (% from baseline) in hot flush weekly weighted score, mean (section B analysis) (post-menopausal women [3]; 15 mg per day, week 2): −45%
Relative change (% from baseline) in hot flush weekly weighted score, mean (section B analysis) (post-menopausal women [3]; 15 mg per day, week 3): −56%
Relative change (% from baseline) in hot flush weekly weighted score, mean (section B analysis) (post-menopausal women [3]; 15 mg per day, week 4): −66%
Relative change (% from baseline) in hot flush weekly weighted score, mean (section B analysis) (post-menopausal women [3]; 15 mg per day, week 5): −70%
Relative change (% from baseline) in hot flush weekly weighted score, mean (section B analysis) (post-menopausal women [3]; 15 mg per day, week 6): −72%
Relative change (% from baseline) in hot flush weekly weighted score, mean (section B analysis) (post-menopausal women [3]; 15 mg per day, week 7): −75%
Relative change (% from baseline) in hot flush weekly weighted score, mean (section B analysis) (post-menopausal women [3]; 15 mg per day, week 8): −76%
Relative change (% from baseline) in hot flush weekly weighted score, mean (section B analysis) (post-menopausal women [3]; 15 mg per day, week 9): −78%
Relative change (% from baseline) in hot flush weekly weighted score, mean (section B analysis) (post-menopausal women [3]; 15 mg per day, week 10): −77%
Relative change (% from baseline) in hot flush weekly weighted score, mean (section B analysis) (post-menopausal women [3]; 15 mg per day, week 11): −79%
